Like-named read-outs stand apart in the source and are kept apart here.
What was measured:
CD83 = CD83 expression in B cell differentiation culture (flow cytometry); format: cell-based, human
Method: Immunophenotyping For Flow Cytometric Analysis: Cells were stained using multicolor direct immunofluorescence stain for flow cytometric analysis. Surface staining was performed before cell fixation and permeabilization. Cells (50 μl; 1×10^6 cells/ml in washing buffer, 2% FBS with 0.1% NaN3 in PBS) were used for each staining. The cells were stained with isotype control mAb ([…]) and multicolor FITC-conjugated anti-CD20 mAb and PE-conjugated anti-CD38 mAb, or PerCP-Cy5.5 conjugated anti-CD44 mAb, PE-conjugated anti-CD83 mAb were used for day 4 activated B cells (CD20+CD38-cells), and day 4 PBs and day 7 PBs (CD20-CD38+), and other staining, analyzed by flow cytometry as per manufacturer's instructions. The intracellular staining of transcription factor proteins (BCL-6, IRF-4, BLIMP-1, PAX-5 and XBP-1) and IgJ was performed according to the manufacturer's recommendations. Flow cytometric analysis was performed with a FACSCanto using FACSDiva 6 (BD Biosciences). For data analysis, Flowjo (Tree Star) software was used.
Using the same B cells in vitro differentiation system, the activity of the test compound on CD44 and CD83 expression in B cell differentiation was further investigated. Multicolor FITC-conjugated anti-CD20 mAb, PerCP Cy5.5-conjugated anti-CD44 mAb and PE-conjugated anti-CD83 mAb are used for day 4 and day 7 cells. The effect of the test compound was evaluated from 3 separate experiments representative of 3 donors.

H929 MM cell lines = experiment: Cell proliferation in lenalidomide-sensitive and resistant H929 MM cells (7-AAD); format: cell-based; settings: Homo sapiens, NCI-H929, 120 h, 5 days, read-out: IC50 for inhibition of proliferation
Method: CRBN ubiquitination was measured in HEK293T cells, which were transfected with an amino-terminal His-biotin-tagged CRBN construct, then preincubated with compounds for one hour followed by treatment with the MG132 proteasome inhibitor (to arrest degradation of ubiquitinated proteins). Cells were lysed and processed to measure CRBN ubiquitination by SDS-PAGE and immunoblot analysis using an anti-ubiquitin antibody. Cell proliferation studies were conducted in enalidomide-sensitive and refractory multiple myeloma cells. Lenalidomide-resistant or sensitive H929 MM cell lines were treated with Compound IA for 5 days, and then cell proliferation and viability were assessed by 7-aminoactinomycin D (“7-ADD”) staining. T-cell costimulation was measured in purified primary human T cells stimulated using immobilized anti-CD3 antibody in cell culture for 2 days, and cytokine secretion was measured by ELISA.

Tsk-1 mouse = experiment: Tight skin-1 (Tsk-1) mouse model: hypodermal thickness and hydroxyproline; format: in vivo; settings: 30 mg/kg
Text: First, the inhibitory effects of the compound on fibrosis in the Tsk-1 tight skin mouse model were also investigated.

[1] = system: BCL-6, IRF-4, BLIMP-1, PAX5 and XBP-1; experiment: Transcription factor protein expression by laser scanning cytometry (iCyte), normal B cells; format: cell-based, human; settings: Day 7, 20 nM
Method: Preparation Of Cytospin From Single Cell Suspension And Immunofluorescence Staining for iCyte: A cell suspension of not more than 0.5×10^6 cells/ml of 2% FBS-containing PBS was prepared. Up to 200 μl of this suspension was loaded in each cuvette and spinned at 800 rpm for 3 min. The cuvette and the paper were carefully detached without damaging the fresh cytospin and proceeded with either immediate fixation or drying. Unfixed cytospins were stored for max 2 days at room temperature. Cells on slides were fixed with increasing concentrations of EtOH and allowed to dry prior to staining. After blocking non-specific binding with normal serum (species same as secondary antibody), sections were incubated with the mixture of following monoclonal antibodies in a humidified chamber at cool room for overnight: (i) anti-human CD38 as plasmablast cell marker, and (ii) anti-BCL-6, IRF-4, BLIMP-1, PAX5 and XBP-1 for transcription factor proteins. After washings, slides were incubated for 1 hr at room temperature in dark with the mixture of secondary antibodies which were raised in different species (with two different fluorochromes, i.e., Alexa Fluor-488 and Alexa Fluor-633). The slides were then rinsed in PBS, counterstained with DAPI for 20 minutes at room temperature, coverslipped with anti-fade fluorescent mounting medium, and sealed with nail polish. The slides were stored in dark at 4° C. To exclude false positives produced by nonspecific binding of the secondary antibody, all of the tissues were treated in the same manner with buffer substituting for the primary antibody. The color of the antibody staining was observed and quantity was analyzed in the tissue sections using iCyte.

IgG [2] = experiment: IgG production in normal B cell / PBMC differentiation cultures (ELISA); settings: Homo sapiens
Method: (§1) Step 1—B cell Activation—day 0 through day 4: Prepare fresh B cell cocktail by adding 50 μg/mL of human transferrin to B cell media. (Iscoves+10% PFBS, 1% P/S, and 5 μg/mL human insulin). […] Five milliliters (1×10^5/ml) of CD19+ B cell were added to each well of a 6 well flat-bottom plate (final cell count=5×10^5/well). Five L (lx)±compound/DMSO was added to each test well (0.1% final DMSO) and incubated at 37° C. for 4 days.
(§2) Step 2—Plasmablast Generation—day 4 through day 7: Cells were harvested and counted on the cell counter; an aliquot was removed for flow analysis, the remaining cells were washed with PBS. Prepare fresh B cell cocktail by adding 1 μg/ml of human transferrin to B cell media. […] Add B cell differentiation cocktail (final concentration): recombinant human IL-2 (20 U/mL), IL-10 (50 ng/mL), IL-15 (10 ng/mL), IL-6 (50 ng/mL) to cells. Add fresh B cell cocktail and transfer cells back to the original wells and bring volume back to 5 mL. Five L (1×)±compound/DMSO was added to each test well (0.1% final DMSO) and incubated at 37° C. for 4 days.
(§3) Supernatants (from section 8.2.3) were harvested and analyzed by ELISA for IgG and IgM production (ZeptoMetrix Corp. Buffalo, N.Y.).
(§4) The data was graphed using GraphPad Prism 5.0 software.
IgM and IgG were measured by ELISA.

CD19+ B cells = experiment: Cell viability during plasmablast differentiation (live cell count); format: cell-based, human; settings: for percentage of total viable cells: after 4 days
Text: To determine live cell count, B cells (see section 8.2.3) were stained with 0.4% trypan blue and live cells counted using the Countess automated cell counter (Invitrogen) in duplicate samples.

IgM [3] = experiment: IgM production by SLE patient PBMC (ELISA); settings: Homo sapiens, read-out: IgM IC50 (nM) SLE (n = 3)
Method: as §3
(§5) B Cell Differentiation Protocol: Enriched B cells were isolated from fresh buffy-coat (leukocyte enriched units) by Ficoll-Hypaque density gradient centrifugation followed by incubation with EasySep negative selection human B cell enrichment kit (Stem cell technologies). In brief, 2×10^8/ml PBMC were mixed with 4 ml of Robosep buffer and transferred to a 14 mL polystyrene round bottom tube. EasySep Human B cell enrichment cocktail (200 μL) was added per tube, vortexed and incubated at room temperature for 10 minutes. […] After cells were counted, an aliquot was removed for FACS analysis and the remaining cells were used for culture. […]
(§6) CD19+ peripheral blood human B cells from normal donors, or total peripheral blood mononuclear cell PBMC for patients with systemic lupus erythematosus (“SLE”), were cultured in the presence of interleukin (“IL”)-2, IL-10, IL15, TLR9 agonist, and CD40 L for 4 days, followed by IL-2, IL-6, IL-10 and IL-15 for another 3 days. Cells were counted, viability assessed, and expression of CD20, CD38, CD44, and CD83 were measured by flow cytometry. Plasmablast lineage factors IRF-4, BLIMP-1, XBP-1, and IgJ, and germinal center markers PAX-5 and BCL-6 were measured by qRT-PCR. […] Secreted immunoglobulins IgG and IgM were measured by ELISA.

IgG [4] = experiment: IgG production by SLE patient PBMC (ELISA); settings: Homo sapiens, read-out: IgG IC50 (nM) SLE (n = 3)
Method: as §3, §5, §6

IgM [5] = experiment: IgM production in normal PBMC differentiation cultures (ELISA); settings: Homo sapiens, read-out: IgM IC50 (nM) Normal (n = 3)
Method: as §1, §2, §3, §4
IgM and IgG were measured by ELISA.

H929 cells = experiment: H929 cell cycle (S-phase) and survivin, pRB, p27 expression; format: cell-based
[6] = CD38+ plasmablast/plasma cells, listed as Compound I-S

Q: With `O=C1CC[C@H](N2Cc3c(OCc4ccc(CN5CCOCC5)cc4)cccc3C2=O)C(=O)N1` [Test compound, (S)-3-[4-(4-morphlin-4-ylmethylbenzyloxy)-1-oxo-1,3-dihydro-isoindo-2-yl]piperidine-2,6-dione] as the compound, how does the “total CD83+ cell population” value (CD83) read?
A: The value was “significantly increased”.

Q: What about the “percentage of CD83+ cells” value (CD83; Day 4, 2 nM, DMSO 13.4%±2.4%) of the same compound?
A: Its value is 24.1%.

Q: What about the “percentage of CD83+ cells” value (CD83; Day 4, 20 nM, DMSO 13.4%±2.4%) of the same compound?
A: The value was 40.2%.

Q: And the “percentage of CD83+ cells” value (CD83; Day 4, 200 nM, DMSO 13.4%±2.4%)?
A: The value was 49.5%.

Q: What about the “percentage of CD83+ cells” value (CD83; Day 7, 2 nM, DMSO […]±3.3) of the same compound?
A: The value was 16.3%.

Q: What about the “percentage of CD83+ cells” value (CD83; Day 7, 20 nM, DMSO […]±3.3) of the same compound?
A: Its value is 36.1%.

Q: And the “percentage of CD83+ cells” value (CD83; Day 7, 200 nM, DMSO […]±3.3)?
A: Its value is 51.9%.

Q: What about the IC50 (H929 MM cell lines; DMSO-treated subclone) of the same compound?
A: The IC50 was 40 nM.

Q: What about the IC50 (H929 MM cell lines; lenalidomide resistant subclones) of the same compound?
A: The IC50 was 510 to 1580 nM.

Q: What about the IC50 (H929 MM cell lines; parental H929 cell line) of the same compound?
A: The IC50 was 10 nM.

Q: What about the “reduction of collagen content of the skin (hydroxyproline levels)” value (Tsk-1 mouse) of the same compound?
A: The value was 38%.

Q: And the “reduction of hypodermal thickening” value (Tsk-1 mouse; p≤0.001)?
A: The value was 45%.

Q: And the BCL-6 expression ([1]; CD38+ plasmablast/plasma cells)?
A: Its BCL-6 expression is “significantly increased”.

Q: And the BLIMP-1 expression ([1]; CD38+ plasmablast/plasma cells)?
A: The BLIMP-1 expression was “decreased”.

Q: What about the IRF-4 expression ([1]; CD38+ plasmablast/plasma cells) of the same compound?
A: Its IRF-4 expression is “decreased”.

Q: What about the PAX-5 expression ([1]; CD38+ plasmablast/plasma cells) of the same compound?
A: Its PAX-5 expression is “decreased”.

Q: What about the BCL-6 expression [1, 6] of the same compound?
A: The BCL-6 expression was “increased”.

Q: What about the BLIMP-1 expression [1, 6] of the same compound?
A: The BLIMP-1 expression was “reduced”.

Q: And the IRF-4 expression [1, 6]?
A: The IRF-4 expression was “reduced”.

Q: What about the XBP-1 expression ([1]; both cell populations) of the same compound?
A: Its XBP-1 expression is “no change”.

Q: And the BCL-6 expression ([1]; whole lymphocyte population)?
A: Its BCL-6 expression is “significantly increased”.

Q: What about the BLIMP-1 expression ([1]; whole lymphocyte population) of the same compound?
A: The BLIMP-1 expression was “decreased”.

Q: And the IRF-4 expression ([1]; whole lymphocyte population)?
A: The IRF-4 expression was “decreased”.

Q: What about the IC50 (IgG [2]; B-cell, read-out: secreted IgG production IC50) of the same compound?
A: Its IC50 is 1.8 nM.

Q: What about the IC50 (IgG [2]; PBMC, read-out: IgG IC50 (nM) Normal (n = 3)) of the same compound?
A: Its IC50 is 2.1 nM.

Q: What about the IC50 (IgG [2]; read-out: IgG production IC50) of the same compound?
A: Its IC50 is 1.8 nM.

Q: And the “percentage of total viable cells” value (CD19+ B cells; 20 nM)?
A: The value was 69.6 % of control.

Q: And the “percentage of total viable cells” value (CD19+ B cells; 200 nM)?
A: The value was 35.8 % of control.

Q: What about the B cell viability (CD19+ B cells; first 4 days of culture) of the same compound?
A: Its B cell viability is “reduced”.

Q: What about the IC50 (IgM [3]) of the same compound?
A: Its IC50 is 0.9 nM.

Q: And the IC50 (IgG [4])?
A: The IC50 was 3.2 nM.

Q: What about the IC50 (IgM [5]) of the same compound?
A: The IC50 was 0.35 nM.

Q: What about the “decrease in cell cycle (S-phase)” value (H929 cells; 24 hours of treatment) of the same compound?
A: Its value is 50%.

Q: And the “expression of cyclin-dependent kinase inhibitor p27” value (H929 cells; 48 hours)?
A: Its value is “increased expression”.

Q: What about the “expression of retinoblastoma protein (pRB)” value (H929 cells; 48 hours) of the same compound?
A: The value was “decreased expression”.

Q: And the expression of survivin (H929 cells; 48 hours)?
A: The expression of survivin was “decreased expression”.
